Like-named read-outs stand apart in the source and are kept apart here.
Assay: Pharmacokinetics: AZD2811 whole blood concentrations and urine excretion
Type: in vivo, human
Settings: for Cmax / AUC(0-t) / Tmax: human, whole blood; for Cmax: read-out: Geometric mean Cmax (CV%); for AUC(0-t): compartmental PK analysis, read-out: Geometric mean AUC(0–504h) (CV%); for Tmax: read-out: Median tmax (range)
Experimental: AEs were assessed throughout the treatment and follow-up periods. Patients were followed until all treatment-related toxicity resolved, or for at least 30 days post-study drug discontinuation. AEs were graded according to CTCAE v4.03. Venous blood samples (4 mL) for measurement of AZD2811 concentrations were collected at Cycle 1 Days 1–6, 8, 15, 16, and 22 and Cycle 2 Day 1 in Cohorts 1–6; Cycle 1 Days 1, 4, 8, 12, and 22 in Cohort 7; Cycle 1 Days 1, 4, 8, 12, and 15 and Cycle 2 Day 1 in Cohorts 8–12. Tumour imaging assessments using computed tomography or magnetic resonance imaging of the chest and abdomen/pelvis were performed at screening (≤28 days prior to initiation of treatment), and then every 2 cycles.
The safety analysis set comprised all patients who received at least one dose of AZD2811. The PK analysis set comprised all patients who received at least one dose of AZD2811 with at least one reportable concentration. […] There was no formal statistical analysis of safety and efficacy data. The numbers of patients experiencing each AE were summarised by Medical Dictionary for Regulatory Activities (MedDRA) version 22.1 system organ class, MedDRA preferred term, and CTCAE grade. The ORR and best overall response based on RECIST 1.1 were summarised. AZD2811 blood concentrations and derived PK parameters were summarised by dose regimen. Summary statistics were calculated for area under the curve (AUC), time of maximum concentration (tmax), and maximum concentration after a single dose (Cmax).
Compartmental PK analysis was used to derive AUC from time zero to the time of the last planned sampling time in the study (AUC0–504h). Cmax and tmax were derived using the standard non-compartmental approach. PK parameters of Cmax, tmax, and AUC0–504h are summarised by cohort in Supplementary Table 2, and geometric mean AZD2811 whole blood concentrations are presented by cohort in Fig. 3. Maximum AZD2811 whole blood concentrations were observed after the end of infusions (Days 1 and 4). […] There was evidence of a second and third phase, 96 and 264 h post-dose. […] Urine samples were only collected in the first four cohorts, and AZD2811 concentrations were below the limit of quantification in the majority (>80%). Consequently, only the total amount of unchanged AZD2811 excreted into urine over 0–72 h was calculated; the maximum amount excreted was 294.40 µg for a patient in Cohort 4 (51 mg AZD2811), which represented <1% of the dose.
Fig. 3 Geometric mean (±geoSD) AZD2811 whole blood concentrations. a For days 1 and 4 regimens and b for day 1 only regimens. In Cohorts 1–6, PK blood samples (4 mL per sample) for determination of AZD2811 blood concentrations were collected from all patients on Cycle 1 Day 1 pre-dose, and at 1, 2, 4, 6, 8, 24, and 48 h (±15 min for each time point) from the start of infusion, then on Cycle 1 Day 4 pre-dose, and at 1, 2, 4, 6, 8, and 24 h (day 5), 48 h (day 6), 96 h (day 8) from the start of infusion, and in the morning on days 15, 16, and 22. A Cycle 2 Day 1 pre-dose sample and a 2-h sample (end of infusion) were also obtained. In Cohorts 7–12, PK blood samples were collected from all patients on Cycle 1 Day 1 pre-dose, and at 1, 2, 4, 6, and 8 h from the start of infusion, and in the morning on Days 4, 8, 12, and 22. G-CSF granulocyte colony stimulating factor, PK pharmacokinetics, Q3W every 3 weeks, Q4W every 4 weeks.

[1] = intravenous, 15 mg, Cohort 1: 15 mg, Days 1 and 4, 28-day cycles, no G-CSF, N = 3
[2] = intravenous, 25 mg, Cohort 2: 25 mg, Days 1 and 4, 28-day cycles, no G-CSF, N = 3
[3] = intravenous, 38 mg, Cohort 3: 38 mg, Days 1 and 4, 28-day cycles, no G-CSF, N = 3
[4] = intravenous, 51 mg, Cohort 4: 51 mg, Days 1 and 4, 28-day cycles, no G-CSF, N = 3
[5] = intravenous, 100 mg, Cohort 5: 100 mg, Days 1 and 4, 28-day cycles, no G-CSF, N = 3
[6] = intravenous, 200 mg, Cohort 8: 200 mg, Day 1, 21-day cycles, optional G-CSF, N = 3
[7] = intravenous, 200 mg, Cohort 6: 200 mg, Days 1 and 4, 28-day cycles, no G-CSF, N = 9
[8] = intravenous, 200 mg, Cohort 7: 200 mg, Day 1, 28-day cycles, optional G-CSF, N = 4
[9] = intravenous, 400 mg, Cohort 9: 400 mg, Day 1, 21-day cycles, optional G-CSF, N = 7
[10] = intravenous, 500 mg, Cohort 12: 500 mg, Day 1, 21-day cycles, mandatory G-CSF, N = 6
[11] = intravenous, 600 mg, Cohort 11: 600 mg, Day 1, 21-day cycles, mandatory G-CSF, N = 3
[12] = over 0–72 h, a patient in Cohort 4 (51 mg AZD2811)

For `CCN(CCO)CCCOc1ccc2c(Nc3cc(CC(=O)Nc4cccc(F)c4)n[nH]3)ncnc2c1` [AZD2811, AZD1152 hydroxyquinazoline pyrazole anilide], the “Dose proportionality of PK” value (across the dose range evaluated (15–600 mg)) was “broadly dose-proportional”, the “Urine samples with AZD2811 concentrations below the limit of quantification” value (first four cohorts) was > 80% and the “Duration of AZD2811 blood exposure” value (following a 2-h infusion on Day 1) was “sustained for several days”. The “End of gradual monophasic decline in concentration post-infusion” value (following a 2-h infusion on Day 1, second and third phase 96 and 264 h post-dose) was “approximately 96 h”, the Cmax (in vivo, Cohort 8: 200 mg, Day 1, 21-day cycles, optional G-CSF, N = 3) was 41400 ng/mL and the AUC(0-t) [1] was 362 µg·h/mL. The Cmax [1] was 3900 ng/mL, the Tmax [1] was 77 h and the AUC(0-t) [2] was 658 µg·h/mL. It also gave a Cmax [2] of 6700 ng/mL, a Tmax [2] of 75 h and an AUC(0-t) [3] of 917 µg·h/mL. The Cmax [3] was 8900 ng/mL, the Tmax [3] was 75 h and the AUC(0-t) [4] was 1420 µg·h/mL. It also gave a Cmax [4] of 14500 ng/mL, a Tmax [4] of 78 h and an AUC(0-t) [5] of 3670 µg·h/mL. It also gave a Cmax [5] of 36800 ng/mL, a Tmax [5] of 78 h and an AUC(0-t) (intravenous, 200 mg, Cohort 6: 200 mg, Days 1 and 4, 28-day cycles, no G-CSF, N = 8) of 6220 µg·h/mL. For the same compound, the AUC(0-t) (intravenous, 200 mg, Cohort 7: 200 mg, Day 1, 28-day cycles, optional G-CSF, N = 3) was 3020 µg·h/mL, the AUC(0-t) [6] was 2750 µg·h/mL and the Cmax [7] was 58300 ng/mL. It also gave a Tmax [7] of 74 h, a Cmax [8] of 43400 ng/mL and a Tmax [8] of 2 h. It also gave a Tmax [6] of 4 h, an AUC(0-t) [9] of 5440 µg·h/mL and a Cmax [9] of 87300 ng/mL. The Tmax [9] was 3 h, the AUC(0-t) (intravenous, 500 mg, Cohort 12: 500 mg, Day 1, 21-day cycles, mandatory G-CSF, N = 5) was 7840 µg·h/mL and the Cmax [10] was 93900 ng/mL. For the same compound, the Tmax [10] was 6 h, the AUC(0-t) [11] was 11600 µg·h/mL and the Cmax [11] was 138000 ng/mL. For the same compound, the Tmax [11] was 6 h, the “Maximum amount excreted into urine as part of the dose” value [12] was < 1 % of the dose and the “Maximum amount of unchanged AZD2811 excreted into urine” value [12] was 294.40 µg.

From paper PMC10147685, “Safety, tolerability, and pharmacokinetics of Aurora kinase B inhibitor AZD2811: a phase 1 dose-finding study in patients with advanced solid tumours” (British Journal of Cancer, 2023)
